What all share (assay type): biochemical
One assay concerns the target c-Src (Homo sapiens, UniProt P12931). Description: IC50 inhibitory activity against c-Src kinase. As for the experimental part: (§1) IC50 values were calculated by measuring the inhibitory activity against LCK, c-Src, p38a/MAPK14, ABL1, DDR1 and FGR kinases of the compounds of the present invention.
In another assay the target is LCK (Homo sapiens, UniProt P06239). Description: IC50 inhibitory activity against LCK kinase. As for the experimental part: as §1
Chain of LCK (P06239 whole entry): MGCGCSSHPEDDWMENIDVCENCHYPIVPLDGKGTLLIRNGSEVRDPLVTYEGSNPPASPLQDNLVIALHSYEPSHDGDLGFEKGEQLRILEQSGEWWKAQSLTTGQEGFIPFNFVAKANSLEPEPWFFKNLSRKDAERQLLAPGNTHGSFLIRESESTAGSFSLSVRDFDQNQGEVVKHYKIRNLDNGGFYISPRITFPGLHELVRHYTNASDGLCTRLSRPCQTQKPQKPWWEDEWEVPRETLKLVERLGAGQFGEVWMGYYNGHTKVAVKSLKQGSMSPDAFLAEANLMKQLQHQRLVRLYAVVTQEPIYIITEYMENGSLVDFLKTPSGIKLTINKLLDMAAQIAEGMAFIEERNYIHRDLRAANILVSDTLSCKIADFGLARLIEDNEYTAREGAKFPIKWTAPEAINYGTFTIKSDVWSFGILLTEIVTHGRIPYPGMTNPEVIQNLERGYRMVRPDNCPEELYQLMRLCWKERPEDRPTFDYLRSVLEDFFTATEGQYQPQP
A further assay concerns the target ABL1 (Homo sapiens, UniProt P00519). Description: IC50 inhibitory activity against ABL1 kinase. As for the experimental part:
as §1

The target in the next assay is p38a/MAPK14 (Homo sapiens, UniProt Q16539). Description: IC50 inhibitory activity against p38a/MAPK14 kinase. The note with it: read-out: p38a/MAPK14 IC50. How it is done:
as §1

These results are taken from US11530221B2, “Pyrimido[4,5-d]pyrimidin-2-one derivatives as protein kinase inhibitors” (KOREA INSTITUTE OF SCIENCE AND TECHNOLOGY, priority 2019, dated 2022).

Where two headings read alike, the source gives them in different places. Square brackets hold non-standard residues; d marks the D form. Peptide text beside a SMILES is read from it. * marks the point of attachment. X1 = Cc1ccc(Nc2ncc3c(n2)N(C)C(=O)N(c2cc(C(=O)*)ccc2C)C3)cn1; Chg = N[C@H](C(=O)O)C1CCCCC1; Aze = O=C(O)[C@@H]1CCN1; Nva = CCC[C@H](N)C(=O)O; Aib = CC(C)(N)C(=O)O

Chain of c-Src (P12931 whole entry): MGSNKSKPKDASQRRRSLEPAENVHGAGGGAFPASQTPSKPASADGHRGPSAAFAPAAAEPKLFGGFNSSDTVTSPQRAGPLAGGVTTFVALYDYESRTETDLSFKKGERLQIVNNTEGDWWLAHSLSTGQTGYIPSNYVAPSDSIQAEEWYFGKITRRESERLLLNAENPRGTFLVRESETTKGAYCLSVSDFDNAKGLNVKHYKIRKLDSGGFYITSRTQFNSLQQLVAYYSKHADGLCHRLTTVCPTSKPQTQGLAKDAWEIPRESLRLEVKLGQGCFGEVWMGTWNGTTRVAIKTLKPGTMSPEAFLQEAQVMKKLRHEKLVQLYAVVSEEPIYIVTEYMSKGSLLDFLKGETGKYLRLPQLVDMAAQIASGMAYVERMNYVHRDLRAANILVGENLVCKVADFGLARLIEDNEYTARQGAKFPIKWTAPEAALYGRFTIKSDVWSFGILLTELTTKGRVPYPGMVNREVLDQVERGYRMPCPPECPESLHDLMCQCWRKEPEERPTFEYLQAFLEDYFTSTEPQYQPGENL
Chain of ABL1 (P00519 whole entry): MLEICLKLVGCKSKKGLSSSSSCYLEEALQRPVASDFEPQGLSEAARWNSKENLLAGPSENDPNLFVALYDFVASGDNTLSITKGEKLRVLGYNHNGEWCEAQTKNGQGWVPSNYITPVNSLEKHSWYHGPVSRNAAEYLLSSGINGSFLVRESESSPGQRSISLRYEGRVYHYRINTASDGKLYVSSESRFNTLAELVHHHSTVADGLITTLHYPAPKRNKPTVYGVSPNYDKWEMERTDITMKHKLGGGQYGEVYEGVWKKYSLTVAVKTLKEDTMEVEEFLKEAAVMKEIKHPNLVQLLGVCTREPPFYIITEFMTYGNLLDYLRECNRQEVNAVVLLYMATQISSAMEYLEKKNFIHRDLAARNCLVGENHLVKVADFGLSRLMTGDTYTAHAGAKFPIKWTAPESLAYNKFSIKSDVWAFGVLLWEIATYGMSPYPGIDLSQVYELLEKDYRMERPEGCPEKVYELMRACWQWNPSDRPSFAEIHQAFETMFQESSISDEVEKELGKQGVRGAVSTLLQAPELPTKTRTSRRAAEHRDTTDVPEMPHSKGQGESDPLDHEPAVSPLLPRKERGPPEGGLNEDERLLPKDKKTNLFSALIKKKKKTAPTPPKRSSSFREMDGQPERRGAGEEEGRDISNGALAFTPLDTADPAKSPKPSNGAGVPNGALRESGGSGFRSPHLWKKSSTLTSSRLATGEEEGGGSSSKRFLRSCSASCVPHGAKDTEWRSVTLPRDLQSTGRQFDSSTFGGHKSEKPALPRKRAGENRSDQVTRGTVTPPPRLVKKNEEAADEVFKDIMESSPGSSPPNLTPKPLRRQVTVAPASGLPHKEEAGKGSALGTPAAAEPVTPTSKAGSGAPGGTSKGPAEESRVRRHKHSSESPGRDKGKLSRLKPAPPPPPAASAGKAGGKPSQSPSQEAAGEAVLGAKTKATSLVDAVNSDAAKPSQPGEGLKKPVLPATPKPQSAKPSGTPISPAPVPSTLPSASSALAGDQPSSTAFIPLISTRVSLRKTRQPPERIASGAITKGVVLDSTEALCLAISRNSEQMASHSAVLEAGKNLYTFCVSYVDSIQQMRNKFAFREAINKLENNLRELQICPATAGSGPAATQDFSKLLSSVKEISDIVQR
Chain of p38a/MAPK14 (Q16539 whole entry): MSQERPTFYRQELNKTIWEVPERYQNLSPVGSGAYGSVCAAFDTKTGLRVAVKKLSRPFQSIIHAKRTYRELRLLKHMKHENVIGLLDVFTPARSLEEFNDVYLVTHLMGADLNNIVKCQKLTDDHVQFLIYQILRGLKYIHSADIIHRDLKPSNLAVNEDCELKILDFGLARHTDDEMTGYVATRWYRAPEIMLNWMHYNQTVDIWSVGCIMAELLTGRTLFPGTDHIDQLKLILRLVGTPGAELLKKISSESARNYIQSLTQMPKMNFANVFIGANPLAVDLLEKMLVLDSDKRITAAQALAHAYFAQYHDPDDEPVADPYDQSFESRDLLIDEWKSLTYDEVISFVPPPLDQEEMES

For `Cc1ccc(Nc2ncc3c(n2)N(C)C(=O)N(c2cc(C(=O)N[C@H](C(=O)N4CC[C@H]4C(=O)NC(C)(C)C(=O)N[C@@H](CC(C)C)C(=O)N(C)C)C(C)C)ccc2C)C3)cn1` [Example 15, (S)—N-(1-(((S)-1-(dimethylamino)-4-methyl-1-oxopentan-2-yl)amino)-2-methyl-1-oxopropan-2-yl)-1-((4-methyl-3-(1-methyl-7-((6-methylpyridin-3-yl)amino)-2-oxo-1,4-dihydropyrimido[4,5-d]pyrimidin-3(2H)-yl)benzoyl)-L-valyl)azetidine-2-carboxamide] (X1-V[Aze][Aib]L-NMe2), the IC50 against c-Src was > 600 nM; against LCK, 200 to 400 nM; on ABL1, 1 to 200 nM.
`CC[C@H](C)[C@H](NC(=O)c1ccc(C)c(N2Cc3cnc(Nc4ccc(C)nc4)nc3N(C)C2=O)c1)C(=O)N1CCC[C@H]1C(=O)NC(C)(C)C(=O)N[C@@H](CC(C)C)C(=O)N(C)C` [Example 16, (S)—N-(1-(((S)-1-(dimethylamino)-4-methyl-1-oxopentan-2-yl)amino)-2-methyl-1-oxopropan-2-yl)-1-((4-methyl-3-(1-methyl-7-((6-methylpyridin-3-yl)amino)-2-oxo-1,4-dihydropyrimido[4,5-d]pyrimidin-3(2H)-yl)benzoyl)-L-isoleucyl)pyrrolidine-2-carboxamide] (X1-IP[Aib]L-NMe2): the IC50 was in the range of 200 to 400 nM at c-Src (read-out: c-Src IC50), 1 to 200 nM on LCK (read-out: LCK IC50) and 1 to 200 nM at ABL1 (read-out: ABL1 IC50).
As to `Cc1ccc(Nc2ncc3c(n2)N(C)C(=O)N(c2cc(C(=O)N[C@@H](C)C(=O)N4CCC[C@H]4C(=O)NC(C)(C)C(=O)N[C@@H](CC(C)C)C(=O)N(C)C)ccc2C)C3)cn1` [Example 17, (S)—N-(1-(((S)-1-(dimethylamino)-4-methyl-1-oxopentan-2-yl)amino)-2-methyl-1-oxopropan-2-yl)-1-((4-methyl-3-(1-methyl-7-((6-methylpyridin-3-yl)amino)-2-oxo-1,4-dihydropyrimido[4,5-d]pyrimidin-3(2H)-yl)benzoyl)-L-alanyl)pyrrolidine-2-carboxamide] (X1-AP[Aib]L-NMe2), the figures for the IC50 at c-Src (read-out: c-Src IC50), on LCK (read-out: LCK IC50) and at ABL1 (read-out: ABL1 IC50) were 200 to 400 nM, 1 to 200 nM and 1 to 200 nM, respectively.
As for `Cc1ccc(Nc2ncc3c(n2)N(C)C(=O)N(c2cc(C(=O)NCC(=O)N4CCC[C@H]4C(=O)NC(C)(C)C(=O)N[C@@H](CC(C)C)C(=O)N(C)C)ccc2C)C3)cn1` [Example 18, (S)—N-(1-(((S)-1-(dimethylamino)-4-methyl-1-oxopentan-2-yl)amino)-2-methyl-1-oxopropan-2-yl)-1-((4-methyl-3-(1-methyl-7-((6-methylpyridin-3-yl)amino)-2-oxo-1,4-dihydropyrimido[4,5-d]pyrimidin-3(2H)-yl)benzoyl)glycyl)pyrrolidine-2-carboxamide] (X1-GP[Aib]L-NMe2), the IC50 at c-Src lay in the range of 400 to 600 nM; against LCK it was 200 to 400 nM; against ABL1, 1 to 200 nM.
Consider `Cc1ccc(Nc2ncc3c(n2)N(C)C(=O)N(c2cc(C(=O)N[C@H](C(=O)N4CCC[C@H]4C(=O)NC(C)(C)C(=O)N[C@@H](CC(C)C)C(=O)N(C)C)C4CCCCC4)ccc2C)C3)cn1` [Example 19, (S)-1-((S)-2-cyclohexyl-2-((4-methyl-3-(1-methyl-7-((6-methylpyridin-3-yl)amino)-2-oxo-1,4-dihydropyrimido[4,5-d]pyrimidin-3(2H)-yl)benzamido)acetyl)-N-(1-(((S)-1-dimethylamino)-4-methyl-1-oxopentan-2-yl)amino)-2-methyl-1-oxopropan-2-yl]pyrrolidine-2-carboxamide] (X1-[Chg]P[Aib]L-NMe2), for which the IC50 against c-Src fell in the range of 400 to 600 nM; at LCK, 1 to 200 nM; at ABL1, 200 to 400 nM.
In the same order, the values of `Cc1ccc(Nc2ncc3c(n2)N(C)C(=O)N(c2cc(C(=O)N[C@@H](CC(C)C)C(=O)N4CCC[C@H]4C(=O)NC(C)(C)C(=O)N[C@@H](CC(C)C)C(=O)N(C)C)ccc2C)C3)cn1` [Example 20, (S)—N-(1-(((S)-1-(dimethylamino)-4-methyl-1-oxopentan-2-yl)amino)-2-methyl-1-oxopropan-2-yl)-1-((4-methyl-3-(1-methyl-7-((6-methylpyridin-3-yl)amino)-2-oxo-1,4-dihydropyrimido[4,5-d]pyrimidin-3(2H)-yl)benzoyl)-L-lucyl)pyrrolidine-2-carboxamide] (X1-LP[Aib]L-NMe2) are 1 to 200 nM, 1 to 200 nM and 1 to 200 nM.
For `CCC[C@H](NC(=O)c1ccc(C)c(N2Cc3cnc(Nc4ccc(C)nc4)nc3N(C)C2=O)c1)C(=O)N1CCC[C@H]1C(=O)NC(C)(C)C(=O)N[C@@H](CC(C)C)C(=O)N(C)C` [Example 21, (S)—N-(1-(((S)-1-(dimethylamino)-4-methyl-1-oxopentan-2-yl)amino)-2-methyl-1-oxopropan-2-yl)-1-((S)-2-(4-methyl-3-(1-methyl-7-((6-methylpyridin-3-yl)amino)-2-oxo-1,4-dihydropyrimido[4,5-d]pyrimidin-3(2H)-yl)benzamido)pentanoyl)pyrrolidine-2-carboxamide] (X1-[Nva]P[Aib]L-NMe2), the IC50 at c-Src lay within 400 to 600 nM; against LCK, 1 to 200 nM; on ABL1, 1 to 200 nM.
Turning to `CC1=N[C@@H](CC(C)C)C(=O)N(Cc2ccccc2)c2cc(C(=O)Nc3ccc(C)c(N4Cc5cnc(Nc6ccc(C)nc6)nc5N(C)C4=O)c3)ccc21` [Example 41, (S)-1-benzyl-3-isobutyl-5-methyl-N-(4-methyl-3-(1-methyl-7-((6-methylpyridin-3-yl)amino)-2-oxo-1,4-dihydropyrimido[4,5-d]pyrimidin-3(2H)-yl)phenyl)-2-oxo-2,3-dihydro-1H-benzo[e][1,4]diazepine-8-carboxamide], the IC50 on c-Src (read-out: c-Src IC50) and at LCK (read-out: LCK IC50) was 1 to 200 nM in each case.
Consider `COCCN1C(=O)[C@H](CC(C)C)N=C(c2ccccc2)c2ccc(C(=O)Nc3ccc(C)c(N4Cc5cnc(Nc6ccc(C)nc6)nc5N(C)C4=O)c3)cc21` [Example 42, (S)-3-isobutyl-1-(2-methoxyethyl)-N-(4-methyl-3-(1-methyl-7-((6-methylpyridin-3-yl)amino)-2-oxo-1,4-dihydropyrimido[4,5-d]pyrimidin-3(2H)-yl)phenyl)-2-oxo-5-phenyl-2,3-dihydro-1H-benzo[e][1,4]diazepine-8-carboxamide], for which the IC50 on c-Src (read-out: c-Src IC50) and on LCK (read-out: LCK IC50) was 1 to 200 nM throughout.
On to `Cc1ccc(Nc2ncc3c(n2)N(C)C(=O)N(c2cc(NC(=O)c4ccc5c(c4)N(CC(=O)NCc4ccccc4)C(=O)[C@H](CC(C)C)N=C5c4ccccc4)ccc2C)C3)cn1` [Example 43, (S)-1-(2-(benzylamino)-2-oxoethyl)-3-isobutyl-N-(4-methyl-3-(1-methyl-7-((6-methylpyridin-3-yl)amino)-2-oxo-1,4-dihydropyrimido[4,5-d]pyrimidin-3(2H)-yl)phenyl)-2-oxo-5-phenyl-2,3-dihydro-1H-benzo[e][1,4]diazepine-8-carboxamide], for which the IC50 at c-Src (read-out: c-Src IC50) and at LCK (read-out: LCK IC50) was 1 to 200 nM in each case.
Consider `C=CCCC1=N[C@@H](CC(=O)Nc2ccc(C)c(N3Cc4cnc(Nc5ccc(C)nc5)nc4N(C)C3=O)c2)C(=O)Nc2ccccc21` [Example 44, (S)-2-(5-(but-3-en-1-yl)-2-oxo-2,3-dihydro-1H-benzo[e][1,4]diazepin-3-yl)-N-(4-methyl-3-(1-methyl-7-((6-methylpyridin-3-yl)amino)-2-oxo-1,4-dihydropyrimido[4,5-d]pyrimidin-3(2H)-yl)phenyl)acetamide], for which the IC50 at c-Src (read-out: c-Src IC50) and at LCK (read-out: LCK IC50) was 1 to 200 nM throughout.
With `C=CCCC1=N[C@@H](CC(=O)Nc2ccc(C)c(N3Cc4cnc(Nc5ccc(C)nc5)nc4N(C)C3=O)c2)C(=O)N(C)c2ccccc21` [Example 45, (S)-2-(5-(but-3-en-1-yl)-1-methyl-2-oxo-2,3-dihydro-1H-benzo[e][1,4]diazepin-3-yl)-N-(4-methyl-3-(1-methyl-7-((6-methylpyridin-3-yl)amino)-2-oxo-1,4-dihydropyrimido[4,5-d]pyrimidin-3(2H)-yl)phenyl)acetamide], the IC50 on c-Src (read-out: c-Src IC50) and on LCK (read-out: LCK IC50) was 1 to 200 nM in each case.
For the compound `C=CCCC1=N[C@@H](CC(=O)Nc2ccc(C)c(N3Cc4cnc(Nc5ccc(C)nc5)nc4N(C)C3=O)c2)C(=O)N(Cc2ccccc2)c2ccccc21` [Example 46, (S)-2-(1-benzyl-5-(but-3-en-1-yl)-2-oxo-2,3-dihydro-1H-benzo[e][1,4]diazepin-3-yl)-N-(4-methyl-3-(1-methyl-7-((6-methylpyridin-3-yl)amino)-2-oxo-1,4-dihydropyrimido[4,5-d]pyrimidin-3(2H)-yl)phenyl)acetamide], the IC50 on c-Src (read-out: c-Src IC50) and on LCK (read-out: LCK IC50) was 1 to 200 nM throughout.
With `Cc1ccc(Nc2ncc3c(n2)N(C)C(=O)N(c2cc(NC(=O)c4ccc([N+](=O)[O-])c(OCCc5c[nH]c6ccccc56)c4)ccc2C)C3)cn1` [Example 50, 3-(2-(1H-indol-3-yl)ethoxy)-N-(4-methyl-3-(1-methyl-7-((6-methylpyridin-3-yl)amino)-2-oxo-1,4-dihydropyrimido[4,5-d]pyrimidin-3(2H)-yl)phenyl)-4-nitrobenzamide], the IC50 at p38a/MAPK14 lay within 200 to 400 nM; at ABL1 (read-out: ABL1 IC50) it was 1 to 200 nM.
In the same order, the values of `Cc1ccc(Nc2ncc3c(n2)N(C)C(=O)N(c2cc(NC(=O)[C@H](C)NC(=O)c4ccc([N+](=O)[O-])c(OCC(C)C)c4)ccc2C)C3)cn1` [Example 53, (S)-3-isobutoxy-N-(1-((4-methyl-3-(1-methyl-7-((6-methylpyridin-3-yl)amino)-2-oxo-1,4-dihydropyrimido[4,5-d]pyrimidin-3(2H)-yl)phenyl)amino)-2-oxopropan-2-yl)-4-nitrobenzamide] are > 600 nM and > 600 nM.
Take `Cc1ccc(Nc2ncc3c(n2)N(C)C(=O)N(c2cc(NC(=O)[C@H](Cc4c[nH]c5ccccc45)NC(=O)c4ccc([N+](=O)[O-])c(OCC(C)C)c4)ccc2C)C3)cn1` [Example 55]: the IC50 at ABL1 (read-out: ABL1 IC50) was > 600 nM.
